From US11007200B2, “Cycloalkyl-diamines for the treatment of pain” (MediSynergics, LLC, priority 2019, dated 2021)
Structures can show the parent of a compound that is named as a salt.

Key:
Sigma-1 = Sigma-1 Ki determination (NIMH-PDSP); format: binding; settings: standard drug haloperidol
Procedure: (§1) The compounds from the above Examples were tested for Sigma-1 and Sigma-2 activity. Ki determinations were generously provided by the National Institute of Mental Health's Psychoactive Drug Screening Program (PDSP), Contract #HHSN-272-2013-000017-C(NIMH-PDSP). The NIMH-PDSP is directed by Bryan L Roth MD, PhD at the University of North Carolina at Chapel Hill, N.C. and Project Officer Jamie Driscoll at NIMH, Bethesda, Md., USA. Procedures employed by the PDSP as described in the NIMH-PDSP Assay Protocol Book, Version II. The standard drug used in both Sigma subtype assays is haloperidol.

Sigma-2 = Sigma-2 Ki determination (NIMH-PDSP); format: binding; settings: standard drug haloperidol
Procedure: as §1

Row | Compound | Ki (Sigma-1) | Ki (Sigma-2)
1 | CN[C@]1(c2ccccc2Cl)CCCC[C@@H]1NCCCN1CCCC1 (relative stereo) [Example 2a, Cis-(1S,2S)-1-(2-chlorophenyl)-N^1-methyl-N^2-[3-(pyrrolidin-1-yl)propyl]-cyclohexane-1,2-diamine trihydrochloride] | 17.3 nM | 59.8 nM
2 | CN[C@]1(c2ccccc2Cl)CCCC[C@H]1NCCCN1CCCC1 (relative stereo) [Example 2b, Trans-(1S,2R)-1-(2-chlorophenyl)-N^1-methyl-N^2-[3-(pyrrolidin-1-yl)propyl]-cyclohexane-1,2-diamine trihydrochloride] | 37.2 nM | 305 nM
3 | CN[C@]1(c2ccccc2Cl)CCCC[C@@H]1NCCCc1ccc(F)cc1 (relative stereo) [Example 3a, Cis-(1S,2S)-1-(2-chlorophenyl)-N^2-[3-(4-fluorophenyl)propyl]-N^1-methyl-cyclohexane-1,2-diamine dihydrochloride] | 35.4 nM | 18 nM
4 | CN[C@]1(c2ccccc2Cl)CCCC[C@H]1NCCCc1ccc(F)cc1 (relative stereo) [Example 3b, Trans-(1S,2R)-1-(2-chlorophenyl)-N^2-[3-(4-fluorophenyl)propyl]-N^1-methyl-cyclohexane-1,2-diamine dihydrochloride] | 217 nM | 675 nM
5 | CN[C@]1(c2ccccc2Cl)CCCC[C@@H]1NCCCc1ccccc1 (relative stereo) [Example 4a, Cis-(1S,2S)-1-(2-chlorophenyl)-N^1-methyl-N^2-(3-phenylpropyl)cyclohexane-1,2-diamine dihydrochloride] | 97.2 nM | 15.5 nM
6 | CN[C@]1(c2ccccc2Cl)CCCC[C@H]1NCCCc1ccccc1 (relative stereo) [Example 4b, Trans-(1S,2R)-1-(2-chlorophenyl)-N^1-methyl-N^2-(3-phenylpropyl)cyclohexane-1,2-diamine dihydrochloride] | 697 nM | 426 nM
7 | CN[C@]1(c2ccccc2Cl)CCCC[C@@H]1NCCCN1CCN(C)CC1 (relative stereo) [Example 13a, Cis-(1S,2S)-1-(2-chlorophenyl)-N^1-methyl-N^2-(3-(4-methylpiperazin-1-yl)propyl)cyclohexane-1,2-diamine tetrahydrochloride] | 70 nM | 98 nM
8 | CN[C@]1(c2ccccc2Cl)CCCC[C@H]1NCCCN1CCN(C)CC1 (relative stereo) [Example 13b, Trans-(1S,2R)-1-(2-chlorophenyl)-N^1-methyl-N^2-(3-(4-methylpiperazin-1-yl)propyl)cyclohexane-1,2-diamine tetrahydrochloride] | 146 nM | 435 nM
